Experimental data as given in PubChem BioAssay AID1963828 (Molecular Pharmacology Branch, DTP, NCI, 2024).

System: 991263-137-R1-J2-PDC complex spheroid viability
Experiment: Anticancer human tumor 991263-137-R1-J2-PDC patient-derived colon adenocarcinoma cell line growth inhibition [POLQ]
Conditions: for IC50: curve of first compound; for viability, T/C: stronger effect = lower value
How it was run: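 PDC + HUVEC + MSC complex spheroids; POLQ inhibitors ± partner drugs; top conc. at/near clinical Cmax, else 10 microM (SN-38 1 microM), half-log dilutions; 37 degrees C, 5% CO2.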

[1] = second compound 0.0316 µM, first compound 0.0316 µM
[2] = second compound 0.0316 µM, first compound 0.1 µM
[3] = second compound 0.0316 µM, first compound 0.316 µM
[4] = second compound 0.0316 µM, first compound 1 µM
[5] = second compound 0.0316 µM, first compound 3.16 µM
[6] = second compound 0.0316 µM, first compound 10 µM
[7] = second compound 0.1 µM, first compound 0.0316 µM
[8] = second compound 0.1 µM, first compound 0.1 µM
[9] = second compound 0.1 µM, first compound 0.316 µM
[10] = second compound 0.1 µM, first compound 1 µM
[11] = second compound 0.1 µM, first compound 3.16 µM
[12] = second compound 0.1 µM, first compound 10 µM
[13] = second compound 0.316 µM, first compound 0.0316 µM
[14] = second compound 0.316 µM, first compound 0.1 µM
[15] = second compound 0.316 µM, first compound 0.316 µM
[16] = second compound 0.316 µM, first compound 1 µM
[17] = second compound 0.316 µM, first compound 3.16 µM
[18] = second compound 0.316 µM, first compound 10 µM
[19] = second compound 1 µM, first compound 0.0316 µM
[20] = second compound 1 µM, first compound 0.1 µM
[21] = second compound 1 µM, first compound 0.316 µM
[22] = second compound 1 µM, first compound 1 µM
[23] = second compound 1 µM, first compound 3.16 µM
[24] = second compound 1 µM, first compound 10 µM
[25] = second compound 3.16 µM, first compound 0.0316 µM
[26] = second compound 3.16 µM, first compound 0.1 µM
[27] = second compound 3.16 µM, first compound 0.316 µM
[28] = second compound 3.16 µM, first compound 1 µM
[29] = second compound 3.16 µM, first compound 3.16 µM
[30] = second compound 3.16 µM, first compound 10 µM
[31] = second compound 10 µM, first compound 0.0316 µM
[32] = second compound 10 µM, first compound 0.1 µM
[33] = second compound 10 µM, first compound 0.316 µM
[34] = second compound 10 µM, first compound 1 µM
[35] = second compound 10 µM, first compound 3.16 µM
[36] = second compound 10 µM, first compound 10 µM
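Note: spheroids exposed to compounds for 7 days before readout.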
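Throughout, for viability, T/C: 100% = DMSO vehicle control viability.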

With O=C(Nc1ccc(O)c(NS(=O)(=O)c2ccc(F)cc2)c1)c1ccc(-c2ccccc2)cc1 + COC1C(OC(N)=O)C(O)C(Oc2ccc3c(O)c(NC(=O)c4ccc(O)c(CC=C(C)C)c4)c(=O)oc3c2C)OC1(C)C as the molecule, how does the IC50 (second compound 0.0316 µM) read?
The IC50 was greater than 10 µM.

What about the IC50 (second compound 0.1 µM) of the same molecule?
The IC50 was greater than 10 µM.

What about the IC50 (second compound 0.316 µM) of the same molecule?
Its IC50 is greater than 10 µM.

And the IC50 (second compound 1 µM)?
Its IC50 is greater than 10 µM.

What about the IC50 (second compound 3.16 µM) of the same molecule?
The IC50 was greater than 10 µM.

And the IC50 (second compound 10 µM)?
The IC50 was greater than 10 µM.

What about the viability, T/C [1] of the same molecule?
Its viability, T/C is 87.8%.

What about the viability, T/C [2] of the same molecule?
Its viability, T/C is 111%.

And the viability, T/C [3]?
The viability, T/C was 112%.

What about the viability, T/C [4] of the same molecule?
The viability, T/C was 93.5%.

What about the viability, T/C [5] of the same molecule?
The viability, T/C was 89.3%.

What about the viability, T/C [6] of the same molecule?
The viability, T/C was 105%.

And the viability, T/C [7]?
Its viability, T/C is 110%.

And the viability, T/C [8]?
The viability, T/C was 119%.

And the viability, T/C [9]?
Its viability, T/C is 113%.

And the viability, T/C [10]?
The viability, T/C was 79.6%.

And the viability, T/C [11]?
Its viability, T/C is 110%.

What about the viability, T/C [12] of the same molecule?
Its viability, T/C is 93.5%.

What about the viability, T/C [13] of the same molecule?
The viability, T/C was 93.9%.

What about the viability, T/C [14] of the same molecule?
The viability, T/C was 112%.

And the viability, T/C [15]?
Its viability, T/C is 92.8%.

And the viability, T/C [16]?
Its viability, T/C is 106%.

What about the viability, T/C [17] of the same molecule?
Its viability, T/C is 93.1%.

What about the viability, T/C [18] of the same molecule?
Its viability, T/C is 92.8%.

And the viability, T/C [19]?
The viability, T/C was 119%.

What about the viability, T/C [20] of the same molecule?
Its viability, T/C is 101%.

What about the viability, T/C [21] of the same molecule?
Its viability, T/C is 100%.

And the viability, T/C [22]?
Its viability, T/C is 109%.

And the viability, T/C [23]?
Its viability, T/C is 109%.

And the viability, T/C [24]?
The viability, T/C was 96.3%.

And the viability, T/C [25]?
The viability, T/C was 101%.

And the viability, T/C [26]?
Its viability, T/C is 103%.

What about the viability, T/C [27] of the same molecule?
The viability, T/C was 91.2%.

What about the viability, T/C [28] of the same molecule?
Its viability, T/C is 79.1%.

And the viability, T/C [29]?
Its viability, T/C is 111%.

And the viability, T/C [30]?
The viability, T/C was 79.6%.

And the viability, T/C [31]?
The viability, T/C was 96.5%.

What about the viability, T/C [32] of the same molecule?
The viability, T/C was 112%.

And the viability, T/C [33]?
Its viability, T/C is 103%.

What about the viability, T/C [34] of the same molecule?
The viability, T/C was 104%.

What about the viability, T/C [35] of the same molecule?
The viability, T/C was 102%.

What about the viability, T/C [36] of the same molecule?
Its viability, T/C is 91.5%.

COc1cc(C2c3cc4c(cc3C(OC3OC5COC(C)OC5C(O)C3O)C3COC(=O)C23)OCO4)cc(OC)c1O (centres undefined) + Cc1cccc(N(C)C(=O)C2C(O)CCN2c2nc(C)cc(C(F)(F)F)c2C#N)c1 was tested. Which IC50 (second compound 0.0316 µM) did it give?
The IC50 was greater than 10 µM.

What about the IC50 (second compound 0.1 µM) of the same molecule?
Its IC50 is greater than 10 µM.

And the IC50 (second compound 0.316 µM)?
Its IC50 is greater than 10 µM.

What about the IC50 (second compound 1 µM) of the same molecule?
Its IC50 is greater than 10 µM.

And the IC50 (second compound 3.16 µM)?
The IC50 was greater than 10 µM.

What about the IC50 (second compound 10 µM) of the same molecule?
Its IC50 is greater than 10 µM.

And the viability, T/C [1]?
Its viability, T/C is 115%.

What about the viability, T/C [2] of the same molecule?
Its viability, T/C is 99%.

What about the viability, T/C [3] of the same molecule?
Its viability, T/C is 87.1%.

And the viability, T/C [4]?
The viability, T/C was 90.5%.

What about the viability, T/C [5] of the same molecule?
Its viability, T/C is 102%.

What about the viability, T/C [6] of the same molecule?
The viability, T/C was 84.7%.

What about the viability, T/C [7] of the same molecule?
The viability, T/C was 95.2%.

What about the viability, T/C [8] of the same molecule?
Its viability, T/C is 103%.

What about the viability, T/C [9] of the same molecule?
The viability, T/C was 75.8%.

What about the viability, T/C [10] of the same molecule?
Its viability, T/C is 98.1%.

What about the viability, T/C [11] of the same molecule?
The viability, T/C was 86.3%.

And the viability, T/C [12]?
The viability, T/C was 73.1%.

And the viability, T/C [13]?
Its viability, T/C is 104%.

What about the viability, T/C [14] of the same molecule?
Its viability, T/C is 102%.

What about the viability, T/C [15] of the same molecule?
The viability, T/C was 109%.

And the viability, T/C [16]?
Its viability, T/C is 95.8%.

What about the viability, T/C [17] of the same molecule?
The viability, T/C was 94.4%.

And the viability, T/C [18]?
The viability, T/C was 87.2%.

And the viability, T/C [19]?
The viability, T/C was 104%.

And the viability, T/C [20]?
The viability, T/C was 109%.

And the viability, T/C [21]?
The viability, T/C was 105%.

What about the viability, T/C [22] of the same molecule?
Its viability, T/C is 106%.

And the viability, T/C [23]?
Its viability, T/C is 84.8%.

And the viability, T/C [24]?
The viability, T/C was 85.7%.

What about the viability, T/C [25] of the same molecule?
Its viability, T/C is 97.2%.

What about the viability, T/C [26] of the same molecule?
The viability, T/C was 107%.

And the viability, T/C [27]?
Its viability, T/C is 92.3%.

What about the viability, T/C [28] of the same molecule?
Its viability, T/C is 99.2%.

And the viability, T/C [29]?
The viability, T/C was 102%.

And the viability, T/C [30]?
Its viability, T/C is 76.8%.

What about the viability, T/C [31] of the same molecule?
The viability, T/C was 117%.

And the viability, T/C [32]?
Its viability, T/C is 96.3%.

What about the viability, T/C [33] of the same molecule?
Its viability, T/C is 73.6%.

What about the viability, T/C [34] of the same molecule?
The viability, T/C was 89.1%.

And the viability, T/C [35]?
The viability, T/C was 84.9%.

What about the viability, T/C [36] of the same molecule?
The viability, T/C was 71.1%.
